From patent publication US6147100A, “Pyrrolidine derivatives having phospholipase A2 inhibitory activity” (Shionogi & Co., Ltd., priority 1997, dated 2000)

Tests used:
[1] = system: production of prostaglandin E2 by human fibroblasts; experiment: Inhibition of Production of Prostaglandin E2 in Human Fibroblasts (IL-1 stimulation); format: cell-based; settings: Fibroblast; human fibroblasts under stimulation with IL-1
Method: Test Example 2 Inhibition of Production of Prostaglandin E2 in Human Fibroblasts.
In order to examine the availability of the composition for inhibiting cytosolic phospholipase A2 (cPLA2) on the cells, the compounds of the present invention were tested for the effect on the production of prostaglandin E2 by human fibroblasts under the stimulation with IL-1 according to the method of J. M. Dayer et al (CACHECTIN/TUMOR NECROSIS FACTOR STIMULATES COLLAGENASE AND PROSTAGLANDIN E2 PRODUCTION BY HUMAN SYNOVIAL CELLS AND DERMAL FIBROBLASTS; J. M. Dayer, B, Beutler and A, Cerami, J. EXP. Med., 1985, 162, 2163-2168.).

cPLA2 = biological target: T1, cPLA2 (Homo sapiens, UniProt P47712); experiment: cPLA2 Inhibitory Activity; format: biochemical; settings: 1-palmitoyl-2-[14C]-arachidonoyl-sn-glycero-3-phosphocholine 2.5 μM, sn-1,2-dioleoylglycerol 1.25 μM; pH 7.5, 15 min at 37° C.
T1 sequence (P47712 1-749): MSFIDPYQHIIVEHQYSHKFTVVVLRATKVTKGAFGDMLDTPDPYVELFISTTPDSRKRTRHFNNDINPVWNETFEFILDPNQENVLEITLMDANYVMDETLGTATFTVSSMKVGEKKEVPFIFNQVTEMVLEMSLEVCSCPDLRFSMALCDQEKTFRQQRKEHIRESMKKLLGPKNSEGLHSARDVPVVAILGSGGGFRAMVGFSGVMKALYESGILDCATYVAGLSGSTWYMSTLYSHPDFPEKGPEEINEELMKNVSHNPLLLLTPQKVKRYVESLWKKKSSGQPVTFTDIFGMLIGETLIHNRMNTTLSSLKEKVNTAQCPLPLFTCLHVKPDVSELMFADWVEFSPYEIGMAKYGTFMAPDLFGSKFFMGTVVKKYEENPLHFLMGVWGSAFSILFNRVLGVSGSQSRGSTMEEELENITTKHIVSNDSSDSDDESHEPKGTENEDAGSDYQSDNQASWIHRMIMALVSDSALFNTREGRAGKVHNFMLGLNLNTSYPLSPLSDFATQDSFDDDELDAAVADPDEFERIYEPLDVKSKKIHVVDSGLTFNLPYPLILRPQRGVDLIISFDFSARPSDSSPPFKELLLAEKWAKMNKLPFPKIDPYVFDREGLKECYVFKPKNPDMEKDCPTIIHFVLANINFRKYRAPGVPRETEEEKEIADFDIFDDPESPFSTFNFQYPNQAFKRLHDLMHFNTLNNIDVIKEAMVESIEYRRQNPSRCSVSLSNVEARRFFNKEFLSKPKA
Outline: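 Radiometric assay in 50 mM HEPES pH 7.5 with 1 mM CaCl2, 150 mM NaCl, 0.1 mg/ml BSA and 1.7 mM DTT; compound and substrate added, reaction started with enzyme, 15 min at 37° C. Released fatty acids extracted (Dole method), counted by liquid scintillation versus no-compound control.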

Structure (SMILES)	IC50 (cPLA2) [nM]	IC50 [1] [nM]
O=C1NC(=O)/C(=C/c2ccc(C(=O)NC[C@@H]3C[C@@H](OCc4ccccc4-c4ccccc4)CN3C(=O)c3ncccc3C(=O)c3ccccc3)cc2)S1 [Compound A-11]	860	230
O=C1NC(=S)S/C1=C\c1ccc(COC[C@@H]2C[C@@H](OCc3ccccc3-c3ccccc3)CN2C(=O)c2ccccc2C(=O)c2ccc(F)cc2)cc1 [Compound C-2]	1100	2200
O=C1NC(=O)/C(=C/c2ccc(C(=O)NC[C@@H]3C[C@@H](OCc4ccccc4Cc4ccccc4)CN3C(=O)c3ccccc3C(=O)c3ccc(F)cc3)cc2)S1 [Compound A-32]	67	570
COc1cccc(-c2ccccc2O[C@@H]2C[C@@H](CNC(=O)c3ccc(/C=C4\SC(=O)NC4=O)cc3)N(C(=O)c3ccccc3C(=O)c3ccc(F)cc3)C2)c1 [Compound A-98]	59	440
O=C1NC(=O)/C(=C/c2ccc(C(=O)NC[C@@H]3C[C@@H](Oc4ccccc4-c4cccc(-c5ccccc5)c4)CN3C(=O)c3ccccc3C(=O)c3ccc(F)cc3)cc2)S1 [Compound A-112]	65	1700
CN(C(c1ccccc1)c1ccccc1)[C@@H]1C[C@@H](CNC(=O)c2ccc(/C=C3\SC(=O)NC3=O)cc2)N(C(=O)c2ccccc2C(=O)c2ccc(F)cc2)C1 [Compound M-12]	94	230
O=C1NC(=S)S/C1=C\c1ccc(C(=O)NC[C@@H]2C[C@@H](SCc3ccccc3-c3ccccc3)CN2C(=O)c2ccccc2C(=O)c2ccc(F)cc2)s1 [Compound I-8]	33	1000
O=C1NC(=O)/C(=C/c2ccc(COC[C@@H]3C[C@@H](OCc4ccccc4-c4ccccc4)CN3C(=O)c3ccccc3C(=O)c3ccc(F)cc3)cc2)S1 [Compound C-1]	350	2300
O=C1NC(=O)/C(=C/c2ccc(C(=O)NC[C@@H]3C[C@@H](OCc4ccccc4-c4cccs4)CN3C(=O)c3ccccc3C(=O)c3ccc(F)cc3)cc2)S1 [Compound A-37]	73	280
CN(c1ccccc1)c1cccc(O[C@@H]2C[C@@H](CNC(=O)c3ccc(/C=C4\SC(=O)NC4=O)cc3)N(C(=O)c3ccccc3C(=O)c3ccc(F)cc3)C2)c1 [Compound A-91]	50	940
O=C1NC(=O)/C(=C/c2ccc(C(=O)NC[C@@H]3C[C@@H](OCc4ccccc4-c4cccc(C(F)(F)F)c4)CN3C(=O)c3ccccc3C(=O)c3ccc(F)cc3)cc2)S1 [Compound A-44]	57	550
O=C1NC(=O)/C(=C/c2ccc(C(=O)NC[C@@H]3C[C@@H](Oc4ccccc4-c4ccc5ccccc5c4)CN3C(=O)c3ccccc3C(=O)c3ccc(F)cc3)cc2)S1 [Compound A-95]	76	390
O=C1NC(=O)/C(=C/c2ccc(C(=O)NC[C@@H]3C[C@@H](OCc4ccccc4-c4ccccc4)CN3C(=O)c3ccccc3C(=O)c3ccccc3)cc2)S1 [Compound A-1]	170	170
O=C1NC(=O)/C(=C/c2ccc(C(=O)NC[C@@H]3C[C@@H](Oc4ccccc4-c4cccc5c4OCO5)CN3C(=O)c3ccccc3C(=O)c3ccc(F)cc3)cc2)S1 [Compound A-102]	52	330
CC(C)CCN(Cc1ccccc1-c1ccccc1)[C@@H]1C[C@@H](CNC(=O)c2ccc(/C=C3\SC(=O)NC3=O)cc2)N(C(=O)c2ccccc2C(=O)c2ccc(F)cc2)C1 [Compound M-11]	36	970
COc1ccccc1-c1ccccc1CO[C@@H]1C[C@@H](CNC(=O)c2ccc(/C=C3\SC(=O)NC3=O)cc2)N(C(=O)c2ccccc2C(=O)c2ccc(F)cc2)C1 [Compound A-41]	56	1200
Cc1ccccc1CO[C@@H]1C[C@@H](CNC(=O)c2ccc(/C=C3\SC(=O)NC3=O)cc2)N(C(=O)c2ccccc2C(=O)c2ccc(F)cc2)C1 [Compound A-5]	580	260
CN(C)c1cccc(O[C@@H]2C[C@@H](CNC(=O)c3ccc(/C=C4\SC(=O)NC4=O)cc3)N(C(=O)c3ccccc3C(=O)c3ccc(F)cc3)C2)c1 [Compound A-87]	180	330
O=C1NC(=O)/C(=C/c2ccc(C(=O)NC[C@@H]3C[C@@H](Oc4ccc(-c5ccccc5)cc4)CN3C(=O)c3ccccc3C(=O)c3ccc(F)cc3)cc2)S1 [Compound A-70]	90	190
CN(Cc1ccccc1)c1ccccc1CO[C@@H]1C[C@@H](CNC(=O)c2ccc(/C=C3\SC(=O)NC3=O)cc2)N(C(=O)c2ccccc2C(=O)c2ccc(F)cc2)C1 [Compound A-43]	52	560
O=C1NC(=O)/C(=C/c2ccc(C(=O)NC[C@H]3C[C@H](OCc4ccccc4-c4ccccc4)CN3C(=O)c3ccccc3C(=O)c3ccc(F)cc3)cc2)S1 [Compound Q-5]	1920	1300

Further compounds by falling IC50 (cPLA2), results first:

IC50 (cPLA2) [nM]	Structure (SMILES)	IC50 [1] [nM]
2510	O=C1NC(=O)/C(=C/c2ccc(C(=O)NC[C@H]3C[C@@H](SCc4ccccc4-c4ccccc4)CN3C(=O)c3ccccc3C(=O)c3ccc(F)cc3)cc2)S1 [Compound Q-1]	1200
1200	O=C1NC(=O)/C(=C/c2ccc(C(=O)NC[C@@H]3C[C@@H](OCc4ccccc4)CN3C(=O)c3ccccc3C(=O)c3ccccc3)cc2)S1 [Compound A-2]	730
460	Nc1ccccc1C(=O)c1ccccc1C(=O)N1C[C@H](OCc2ccccc2-c2ccccc2)C[C@H]1CNC(=O)c1ccc(/C=C2\SC(=O)NC2=O)cc1 [Compound A-23]	1200
280	O=C1NC(=S)S/C1=C\c1ccc(C(=O)NC[C@@H]2C[C@@H](OCc3ccccc3-c3ccccc3)CN2C(=O)c2ccccc2C(=O)c2ccc(Cl)cc2)cc1 [Compound A-28]	1400
100	CC(C)CN(Cc1ccccc1)[C@@H]1C[C@@H](CNC(=O)c2ccc(/C=C3\SC(=O)NC3=O)cc2)N(C(=O)c2ccccc2C(=O)c2ccc(F)cc2)C1 [Compound M-5]	3000
98	O=C1NC(=O)/C(=C/c2ccc(C(=O)NC[C@@H]3C[C@@H](OCc4ccccc4-c4ccc(F)cc4)CN3C(=O)c3ccccc3C(=O)c3ccc(F)cc3)cc2)S1 [Compound A-30]	460
86	O=C1NC(=O)/C(=C/c2ccc(C(=O)NC[C@@H]3C[C@@H](OC(c4ccccc4)c4ccccc4)CN3C(=O)c3ccccc3C(=O)c3ccc(F)cc3)cc2)S1 [Compound A-29]	2200
84	O=C1NC(=S)S/C1=C\c1ccc(NC(=O)[C@@H]2C[C@@H](OCc3ccccc3-c3ccccc3)CN2C(=O)c2ccccc2C(=O)c2ccc(F)cc2)cc1 [Compound B-2]	4000
60	O=C1NC(=O)/C(=C/c2ccc(C(=O)NC[C@@H]3C[C@@H](N(Cc4ccccc4)Cc4ccccc4)CN3C(=O)c3ccccc3C(=O)c3ccc(F)cc3)cc2)S1 [Compound M-3]	3100
29	COc1cccc(-c2ccccc2C(C)C)c1O[C@@H]1C[C@@H](CNC(=O)c2ccc(/C=C3\SC(=O)NC3=O)cc2)N(C(=O)c2ccccc2C(=O)c2ccc(F)cc2)C1 [Compound A-120]	740
10	CC(C)c1ccccc1-c1ccccc1O[C@@H]1C[C@@H](CNC(=O)c2ccc(/C=C3\SC(=O)NC3=O)cc2)N(C(=O)c2ccccc2C(=O)c2ccc(F)cc2)C1 [Compound A-115]	4600
